# Calls of active or inactive are those of the source. No cut-off for these calls is given here.
# What was measured:
# [1] = Inhibition of BCR-ABL phosphorylation in mouse BaF3 cells incubated for 3 hrs by immunoblotting analysis; format: functional, cell-based
# BaF3 [2] = experiment: Induction of apoptosis in mouse BaF3 cells expressing Bcr-Abl Q252H mutant assessed as increase in apoptotic cells at 1500 nM incubated for 72 hrs by Annexin V-phycoerythrin and 7-amino-actinomycin D staining based PCA instrument analysis relative to control; format: functional
# BaF3 [3] = experiment: Induction of apoptosis in mouse BaF3 cells expressing Bcr-Abl H396R mutant at 30 to 300 nM incubated for 72 hrs by Annexin V-phycoerythrin and 7-amino-actinomycin D staining based PCA instrument analysis; format: functional, cell-based; conditions: dose 30-300 nM
# [4] = Inhibition of BCR-ABL M351T mutant (unknown origin) expressed in mouse BaF3 cells assessed as inhibition of cell growth incubated for 72 hrs by […] CellTiter96 viability analysis
# BaF3 [5] = experiment: Induction of apoptosis in mouse BaF3 cells expressing Bcr-Abl Y253H mutant at 30 to 300 nM incubated for 72 hrs by Annexin V-phycoerythrin and 7-amino-actinomycin D staining based PCA instrument analysis; format: functional, cell-based; conditions: dose 30-300 nM
# cells = conditions: Mus musculus, BaF3, 3 h
# BaF3 [6] = experiment: Induction of apoptosis in mouse BaF3 cells expressing Bcr-Abl E255K mutant assessed as increase in apoptotic cells at 1500 nM incubated for 72 hrs by Annexin V-phycoerythrin and 7-amino-actinomycin D staining based PCA instrument analysis relative to control; format: functional
# BaF3 [7] = experiment: Induction of apoptosis in mouse BaF3 cells expressing Bcr-Abl H396R mutant assessed as increase in apoptotic cells at 1500 nM incubated for 72 hrs by Annexin V-phycoerythrin and 7-amino-actinomycin D staining based PCA instrument analysis relative to control; format: functional
# BaF3 [8] = experiment: Induction of apoptosis in mouse BaF3 cells expressing Bcr-Abl F311L mutant assessed as increase in apoptotic cells at 1500 nM incubated for 72 hrs by Annexin V-phycoerythrin and 7-amino-actinomycin D staining based PCA instrument analysis relative to control; format: functional
# [9] = Inhibition of BCR-ABL F311L mutant (unknown origin) expressed in mouse BaF3 cells assessed as inhibition of cell growth incubated for 72 hrs by […] CellTiter96 viability analysis
# [10] = Inhibition of BCR-ABL H396P mutant (unknown origin) expressed in mouse BaF3 cells assessed as inhibition of cell growth incubated for 72 hrs by […] CellTiter96 viability analysis
# BaF3 [11] = experiment: Induction of apoptosis in mouse BaF3 cells expressing Bcr-Abl E255V mutant at 30 to 300 nM incubated for 72 hrs by Annexin V-phycoerythrin and 7-amino-actinomycin D staining based PCA instrument analysis; format: functional, cell-based; conditions: dose 30-300 nM
# BaF3 [12] = experiment: Induction of apoptosis in mouse BaF3 cells expressing Bcr-Abl T315l mutant assessed as increase in apoptotic cells at 1500 nM incubated for 72 hrs by Annexin V-phycoerythrin and 7-amino-actinomycin D staining based PCA instrument analysis relative to control; format: functional
# BaF3 [13] = experiment: Induction of apoptosis in mouse BaF3 cells expressing Bcr-Abl G250E mutant assessed as increase in apoptotic cells at 1500 nM incubated for 72 hrs by Annexin V-phycoerythrin and 7-amino-actinomycin D staining based PCA instrument analysis relative to control; format: functional
# BaF3 [14] = experiment: Induction of apoptosis in mouse BaF3 cells expressing Bcr-Abl H396P mutant at 30 to 300 nM incubated for 72 hrs by Annexin V-phycoerythrin and 7-amino-actinomycin D staining based PCA instrument analysis; format: functional, cell-based; conditions: dose 30-300 nM
# BaF3 [15] = experiment: Induction of apoptosis in mouse BaF3 cells expressing Bcr-Abl T315I mutant at 30 to 1500 nM incubated for 72 hrs by Annexin V-phycoerythrin and 7-amino-actinomycin D staining based PCA instrument analysis relative to control; format: functional, cell-based; conditions: dose 30-1500 nM
# BaF3 [16] = experiment: Induction of apoptosis in mouse BaF3 cells expressing Bcr-Abl V379l mutant assessed as increase in apoptotic cells at 1500 nM incubated for 72 hrs by Annexin V-phycoerythrin and 7-amino-actinomycin D staining based PCA instrument analysis relative to control; format: functional
# [17] = Inhibition of BCR-ABL E255V mutant (unknown origin) expressed in mouse BaF3 cells assessed as inhibition of cell growth incubated for 72 hrs by […] CellTiter96 viability analysis
# [18] = Inhibition of BCR-ABL V379l mutant (unknown origin) expressed in mouse BaF3 cells assessed as inhibition of cell growth incubated for 72 hrs by […] CellTiter96 viability analysis
# BaF3 [19] = experiment: Induction of apoptosis in mouse BaF3 cells expressing Bcr-Abl G250E mutant at 30 to 300 nM incubated for 72 hrs by Annexin V-phycoerythrin and 7-amino-actinomycin D staining based PCA instrument analysis; format: functional, cell-based; conditions: dose 30-300 nM
# BaF3 [20] = experiment: Induction of apoptosis in mouse BaF3 cells expressing Bcr-Abl F317L mutant assessed as increase in apoptotic cells at 1500 nM incubated for 72 hrs by Annexin V-phycoerythrin and 7-amino-actinomycin D staining based PCA instrument analysis relative to control; format: functional
# [21] = Inhibition of BCR-ABL V379l mutant (unknown origin) expressed in mouse BaF3 cells assessed as inhibition of tyrosine phosphorylation incubated for 3 hrs by immunoblotting analysis; format: cell-based; conditions: BaF3, 3 h
# [22] = Inhibition of BCR-ABL F311L mutant (unknown origin) expressed in mouse BaF3 cells assessed as inhibition of tyrosine phosphorylation incubated for 3 hrs by immunoblotting analysis; format: cell-based; conditions: BaF3, 3 h
# BaF3 [23] = experiment: Induction of apoptosis in mouse BaF3 cells expressing Bcr-Abl E255K mutant at 30 to 300 nM incubated for 72 hrs by Annexin V-phycoerythrin and 7-amino-actinomycin D staining based PCA instrument analysis; format: functional, cell-based; conditions: dose 30-300 nM
# BaF3 [24] = experiment: Induction of apoptosis in mouse BaF3 cells expressing Bcr-Abl M351T mutant assessed as increase in apoptotic cells at 1500 nM incubated for 72 hrs by Annexin V-phycoerythrin and 7-amino-actinomycin D staining based PCA instrument analysis relative to control; format: functional
# [25] = Cytotoxicity against mouse BaF3 cells assessed as reduction in cell proliferation incubated for 72 hrs by […] CellTiter96 viability analysis; format: toxicity
# BaF3 [26] = experiment: Induction of apoptosis in mouse BaF3 cells expressing Bcr-Abl Y253F mutant assessed as increase in apoptotic cells at 1500 nM incubated for 72 hrs by Annexin V-phycoerythrin and 7-amino-actinomycin D staining based PCA instrument analysis relative to control; format: functional
# [27] = Inhibition of BCR-ABL G250E mutant (unknown origin) expressed in mouse BaF3 cells assessed as inhibition of cell growth incubated for 72 hrs by […] CellTiter96 viability analysis
# BaF3 [28] = experiment: Induction of apoptosis in mouse BaF3 cells expressing Bcr-Abl Y253F mutant at 30 to 300 nM incubated for 72 hrs by Annexin V-phycoerythrin and 7-amino-actinomycin D staining based PCA instrument analysis; format: functional, cell-based; conditions: dose 30-300 nM
# [29] = BaF3, time 72 hrs, condition chronic myelogenous leukemia
compound,measurement,setting,value
Cc1cn(-c2cc(NC(=O)c3ccc(C)c(Nc4nccc(-c5cccnc5)n4)c3)cc(C(F)(F)F)c2)cn1 [NILOTINIB],IC50,[1],Not Active
same,Activity,BaF3 [2],>90%
same,Activity,BaF3 [3],Active
same,IC50,"[4]; BaF3, 72 h",15 nM
same,IC90,[4]; [29],31 nM
same,Activity,BaF3 [5],Active
same,IC50,cells,250 nM
same,Activity,BaF3 [6],>90%
same,Activity,BaF3 [7],>90%
same,Activity,BaF3 [8],>90%
same,IC50,"[9]; BaF3, 72 h",23 nM
same,IC90,[9]; [29],48 nM
same,IC50,"[10]; BaF3, 72 h",41 nM
same,IC90,[10]; [29],69 nM
same,Activity,BaF3 [11],Active
same,Activity,BaF3 [12],3%
same,Activity,BaF3 [13],>90%
same,Activity,BaF3 [14],Active
same,Activity,BaF3 [15],inactive
same,Activity,BaF3 [16],>90%
same,IC50,"[17]; BaF3, 72 h",430 nM
same,IC90,[17]; [29],2000 nM
same,IC50,"[18]; BaF3, 72 h",51 nM
same,IC90,[18]; [29],115 nM
same,Activity,BaF3 [19],Active
same,Activity,BaF3 [20],>90%
same,IC50,[21],15 nM
same,IC50,[22],44 nM
same,Activity,BaF3 [23],Active
same,Activity,BaF3 [24],>90%
same,IC50 at 72 h,[25],> 2000 nM
same,Activity,BaF3 [26],>90%
same,IC50,"[27]; BaF3, 72 h",48 nM
same,IC90,[27]; [29],152 nM
same,Activity,BaF3 [28],Active

# Reference: ChEMBL document CHEMBL5715937, “In vitro activity of Bcr-Abl inhibitors AMN107 and BMS-354825 against clinically relevant imatinib-resistant Abl kinase domain mutants” (Cancer Res, 2005)
